For assay [1], the system named is Wnt3a-stimulated β-catenin signaling in HEK293S cells. In words: TOPGLOW luciferase reporter assay in HEK293S cells. It counts as cell-based. As to the method:
HEK293S cells were transfected with the reporter plasmid pTOPGLOW combined with pRL reporter. Cell extract was prepared and the luciferase activity was measured. The relative luciferase unit (RLU) is TopGlow luciferase activity divided by Renila luciferase activity. The fold of activation is the RLU ratio between the Wnt3a-stimulated and non-stimulated cells. Cells were treated with either 10 μM (light bar) or 20 μM (dark bar) peptide ligands.
(§1) Cell culture, transfection and peptide treatment: HEK293 and H1703 were propagated according to the instructions from American Type Culture Collection. HEK293 cells were transfected with FuGene6 according to the manufacturer's instructions (Roche Molecular Biochemicals) at cell confluence of 50%. H1703 cells were transfected with Lipofectamine according to manufacturer's instruction at cell confluence of 80%. Cells were treated with medium containing peptide (5 μM-40 μM) 24 hours after transfection, and were routinely harvested 24 hours after the peptide treatment for additional assays.
(§2) TOPGLOW assay: Cells were plated in 12-well plates. The TOPGLOW reporter plasmid was transfected transiently into cells as described above. TCF-mediated gene transcription was determined by pTOPGLOW luciferase activity, which was normalized to relative luciferase activities of pRL reporter (cotransfected internal control). All experiments were performed duplicated.
Background: A reporter such as luciferase makes a cellular process visible.

Assay [2] deals with β-catenin protein level in HEK293S cells. In words: Western blot of β-catenin protein level in HEK293S cells. As to conditions: 20 μM peptide, 24 hours, compared to DMSO and PEN. It counts as cell-based. As to the method: HEK293S cells were treated with 20 μM DVLp and PEN for 24 hours. Cell lysate was prepared and subjected to SDS-PAGE. β-catenin was blotted by poly-clonal anti-β-catenin (Genentech, Inc., South San Francisco).
as §1
Western Blot: Harvested cells were lysed with SIC lysis buffer, the supernatant was subjected to SDS-PAGE, which was transferred, blocked and blotted with proper primary antibody by a standard western blot protocol. Fluorescence labeled secondary antibodies (Alexa goat anti-mouse or anti-rabbit) were added and the results were analyzed by Li-core™.

For assay [3], the system named is Wnt-stimulated β-catenin signaling in NCI-H1703 cells. The experiment in a line: TOPGLOW luciferase reporter assay in NCI-H1703 cells. It counts as cell-based, human. How it is done: NCI-H1703 cells were transfected with the reporter plasmid pTOPGLOW combined with pRL reporter. Cell extract was prepared and the luciferase activity was measured. The relative luciferase unit is TopGlow luciferase activity divided by Renila luciferase activity. The fold of activation is the RLU ratio between the Wnt3a-stimulated or non-stimulated cells.
as §1, §2

Another assay relates to NCI-H1703 cells. In words: Alamar Blue cell viability and growth assay. It counts as cell-based, human. As to the method:
Cells were seeded in black wall 96-well plate in triplicate and treated with various doses of peptide on Day 0 and were incubated at 37° C. in a humid incubator with 5% CO2. After 72 hours, Alamar Blue assay was performed.
Cells were seeded in black wall 96-well plate in triplicate and treated with 10 μM peptide or DMSO on Day 0, and the cell viability was measured by Alamar Blue assay after 24, 48 and 72 hours.
Cell viability assay: Cells were seeded in black wall 96-well plate in triplicate and treated with various doses of peptide on Day 0 and were incubated at 37° C. in a humid incubator with 5% CO2. After 72 hours, Alamar Blue assay was performed according to the instruction from manufacturer. For cell growth profile, the cells were seeded in black wall 96-well plate in triplicate and treated with 10 μM peptide or DMSO on Day 0, and cell viability was measured by Alamar Blue assay after 24, 48 and 72 hours.

The next assay deals with T1, Dvl1 (Homo sapiens, UniProt O14640).
T1 construct: All three endogenous Dvl could be detected in crude cell lysate of HEK293, and could be pulled down by GST-Dvlpep; endogenous in cells; host or cells: HEK293S
T1 sequence (O14640 1-695): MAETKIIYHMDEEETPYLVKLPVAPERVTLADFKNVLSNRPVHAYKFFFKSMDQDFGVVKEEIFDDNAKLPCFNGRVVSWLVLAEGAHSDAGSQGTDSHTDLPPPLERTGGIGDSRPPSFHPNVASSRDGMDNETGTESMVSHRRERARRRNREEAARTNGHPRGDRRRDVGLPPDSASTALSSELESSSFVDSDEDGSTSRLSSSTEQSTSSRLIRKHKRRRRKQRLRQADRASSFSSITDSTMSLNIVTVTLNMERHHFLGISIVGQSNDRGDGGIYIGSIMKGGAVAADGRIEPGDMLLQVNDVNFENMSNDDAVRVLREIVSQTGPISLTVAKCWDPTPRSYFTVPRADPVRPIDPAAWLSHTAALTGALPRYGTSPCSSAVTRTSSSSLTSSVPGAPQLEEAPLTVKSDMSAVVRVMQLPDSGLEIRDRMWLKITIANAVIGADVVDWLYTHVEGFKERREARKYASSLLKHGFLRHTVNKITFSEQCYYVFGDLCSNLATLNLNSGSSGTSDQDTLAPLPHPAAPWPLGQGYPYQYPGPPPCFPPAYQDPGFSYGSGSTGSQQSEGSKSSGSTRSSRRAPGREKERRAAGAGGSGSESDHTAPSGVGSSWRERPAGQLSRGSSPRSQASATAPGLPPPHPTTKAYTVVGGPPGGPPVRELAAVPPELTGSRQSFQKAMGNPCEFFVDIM
In words: GST pull-down from HEK293S cell extract, blot with anti-Dvl1. The conditions noted are these: HEK293 cell lysate, glutathione Sepharose-4B beads. It counts as binding. As to the method: (§3) Cell lysate of HEK293S cell was prepared and the whole protein concentration was normalized to 1 mg/ml. GST or GST-DVLpep fusion protein was bound to glutathione Sepharose-4B. Beads carrying protein (2-10 μg) were incubated with cell extract of HEK293S cells overnight at 4° C. The beads were washed with washing buffer (PBS, 0.5% BSA, 0.1% Tween 20) for 10 times and resuspended in SDS sample buffer, incubated at 90° C. for 10 min and the supernatant was subjected to SDS-PAGE. The crude cell extract was also subjected to the same SDS-PAGE. Dvl proteins were blotted by anti-Dvl1, anti-Dvl2, and anti-Dvl3.
(§4) Pull-down Assays—GST or GST-DVLpep fusion protein (GST fused with peptide GGGKWYGWL (SEQ ID NO: 182) at its C-terminus) was bound to glutathione Sepharose-4B following standard protocols, and bound proteins were quantified by SDS-PAGE using known amounts of BSA as standards. Beads carrying protein (2-10 μg) were incubated with cell extract of HEK293S cell overnight at 4° C. The cell extracts were prepared by lysing the cell in SJC lysis buffer. The whole protein concentration was determined by BCA protein kit (Promega; Madison, Wis.) and normalized to 1 mg/ml. […] Bound proteins were blotted by anti-Dvl1, anti-Dvl2 and anti-Dvl3 and analyzed by Li-core™.

The target of a further assay is T2, Dvl2 (Homo sapiens, UniProt O14641).
T2 construct: All three endogenous Dvl could be detected in crude cell lysate of HEK293, and could be pulled down by GST-Dvlpep; endogenous in cells; host or cells: HEK293S
T2 sequence (O14641 1-736): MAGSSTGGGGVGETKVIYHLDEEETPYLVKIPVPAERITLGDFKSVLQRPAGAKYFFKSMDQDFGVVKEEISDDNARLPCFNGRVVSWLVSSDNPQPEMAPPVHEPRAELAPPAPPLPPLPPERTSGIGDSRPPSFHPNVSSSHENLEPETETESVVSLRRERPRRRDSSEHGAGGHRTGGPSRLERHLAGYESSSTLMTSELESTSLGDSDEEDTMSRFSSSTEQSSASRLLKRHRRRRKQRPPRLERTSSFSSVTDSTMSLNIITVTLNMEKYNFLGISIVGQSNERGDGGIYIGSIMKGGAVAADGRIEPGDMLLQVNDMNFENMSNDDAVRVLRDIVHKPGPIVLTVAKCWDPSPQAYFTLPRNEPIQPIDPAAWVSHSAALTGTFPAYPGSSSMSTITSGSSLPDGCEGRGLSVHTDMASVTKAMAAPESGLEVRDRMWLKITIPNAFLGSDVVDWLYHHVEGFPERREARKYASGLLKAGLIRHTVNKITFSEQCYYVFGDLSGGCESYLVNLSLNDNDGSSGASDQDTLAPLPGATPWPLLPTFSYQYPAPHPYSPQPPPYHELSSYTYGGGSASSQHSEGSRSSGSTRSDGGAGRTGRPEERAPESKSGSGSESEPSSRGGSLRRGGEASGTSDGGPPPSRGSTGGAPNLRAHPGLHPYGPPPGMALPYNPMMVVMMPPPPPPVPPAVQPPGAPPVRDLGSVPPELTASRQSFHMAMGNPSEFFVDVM
The experiment in a line: GST pull-down from HEK293S cell extract, blot with anti-Dvl2. The conditions noted are these: HEK293 cell lysate, glutathione Sepharose-4B beads. It counts as binding. As to the method:
as §3, §4

A further assay has as its target T3, Dvl3 (Homo sapiens, UniProt Q92997).
T3 construct: All three endogenous Dvl could be detected in crude cell lysate of HEK293, and could be pulled down by GST-Dvlpep; endogenous in cells; host or cells: HEK293S
T3 sequence (Q92997 1-716): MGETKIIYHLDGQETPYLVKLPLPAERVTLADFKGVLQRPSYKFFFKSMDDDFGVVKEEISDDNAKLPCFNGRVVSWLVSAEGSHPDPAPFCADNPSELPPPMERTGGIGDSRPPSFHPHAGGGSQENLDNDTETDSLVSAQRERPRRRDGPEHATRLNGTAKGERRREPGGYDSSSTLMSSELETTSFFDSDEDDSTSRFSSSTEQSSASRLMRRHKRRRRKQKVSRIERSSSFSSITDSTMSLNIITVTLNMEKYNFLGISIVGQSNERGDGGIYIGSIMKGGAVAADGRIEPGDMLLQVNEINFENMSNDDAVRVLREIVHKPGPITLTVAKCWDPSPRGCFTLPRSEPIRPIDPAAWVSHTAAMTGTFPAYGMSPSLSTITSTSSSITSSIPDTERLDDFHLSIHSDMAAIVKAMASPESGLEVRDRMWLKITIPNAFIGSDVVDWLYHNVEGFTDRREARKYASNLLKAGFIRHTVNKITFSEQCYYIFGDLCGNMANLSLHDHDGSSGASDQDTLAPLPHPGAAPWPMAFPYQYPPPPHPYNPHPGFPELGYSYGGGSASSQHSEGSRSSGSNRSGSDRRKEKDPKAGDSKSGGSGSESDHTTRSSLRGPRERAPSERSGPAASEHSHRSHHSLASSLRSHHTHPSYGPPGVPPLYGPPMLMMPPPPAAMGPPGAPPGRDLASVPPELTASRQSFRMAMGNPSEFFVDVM
In words: GST pull-down from HEK293S cell extract, blot with anti-Dvl3. Type of assay: binding. The conditions noted are these: HEK293 cell lysate, glutathione Sepharose-4B beads. As to the method:
as §3, §4

“Also recorded” adds a separate entry of the source. No end group written: not given here.

On to Ac-RQIKIWFQNRRMKWKKKWYGWL [DVLp_C], for which the “Effect on Wnt3a-stimulated transcriptional activity (TopGlow)” value in assay [1] (HEK293S cells, peptide up to 20 μM in medium) is on record as “inhibited Wnt3a-stimulated transcriptional activity significantly; also recorded: significantly blocked the Wnt-stimulated increase in β-catenin signaling”. The “Dose dependence of inhibition of Wnt-stimulated β-catenin signaling” value in assay [1] (HEK293S cells, two independent experiments) was “dose-dependent”. The “Inhibition of Wnt3a-stimulated transcriptional activity” value in assay [1] (HEK293 cells, peptide 5-20 μM) is recorded as “about 50%”. In addition, the “β-catenin level in whole cell lysate upon Wnt3a stimulation” value in assay [2] is reported as “significantly lower β-catenin levels; also recorded: reduced the Wnt-stimulated increase in β-catenin protein level”. Moreover, the “Effect on Wnt-stimulated β-catenin signaling / Tcf-stimulated transcriptional activity (TopGlow)” value in assay [3] is on record as “inhibited by DVLp_C treatment significantly; also recorded: blocked the Wnt-stimulated increase in β-catenin signaling”. In the assay on NCI-H1703 cells (NCI-H1703, 10 μM peptide, 24, 48 and 72 hours), the Cell growth profile entry is reported as “much slower than that of DMSO or PEN-treated cells; also recorded: effectively suppressed the cell growth”. The “Cell viability with Wnt3a stimulation” value in the assay on NCI-H1703 cells (NCI-H1703, 72 hours, peptide dose of 5 μM) is listed as “lower viability of DVLp_C-treated cells compared to PEN-treated cells”. Besides, in the assay on NCI-H1703 cells (NCI-H1703, 72 hours, peptide dose over 10 μM), the “Cell viability without Wnt3a stimulation” value is on record as “much lower viability than PEN-treated cells”.
Turning to “GST-Dvlpep: GST fused with peptide GGGKWYGWL (SEQ ID NO: 182) at its C-terminus ({GST}-GGGKWYGWL)”, in the assay with Dvl1, the “Pull-down of endogenous Dvl1” value is on record as “pulled down”. The “Pull-down of endogenous Dvl2” value with Dvl2 was “pulled down”. Further, in the assay with Dvl3, the “Pull-down of endogenous Dvl3” value is “pulled down”.

The values are drawn from US7977064B2, “Disheveled PDZ modulators” (Genentech, Inc., priority 2006, dated 2011).
